CC50 and inhibition data for 21 compounds are collected here from US9540343B2 (Gilead Sciences, Inc., priority 2011, dated 2017).

One data set is described as follows: in vitro. The note with it: human, uninfected MT-4 cells, CC50 (nM), same protocol as Test A, CellTiter-Glo. Summed up:
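Cytoprotection read-out: CellTiter-Glo chemiluminescence after 5 days at 37 °C of HIV-IIIb-infected MT-4 cells (m.o.i. 0.003) with compound in 10-point 3-fold dilutions, quadruplicate, 10% FBS. Cytotoxicity (CC50) measured identically without virus.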

The subject of the next data set is HIV-IIIb. Briefly: Test A: Antiviral assay in MT4 cells. The note with it: Human immunodeficiency virus 1, IIIB, MT4, 120 h, read-out: % inhibition at 2 μM, percent inhibition of virus-induced cell killing, from dose response curve at 2 uM drug; MT-4 cells infected with HIV-IIIb, 5 days, CellTiter-Glo. The data set is classed as cell-based, HIV-1.

With `CC(=O)N1Cc2c(C(F)(F)F)nn(CC(=O)N[C@@H](Cc3cc(F)cc(F)c3)c3ncccc3-c3ccc(F)c(C(N)=O)c3)c2C1` [Example 219, (S)-5-(2-(1-(2-(5-acetyl-3-(trifluoromethyl)-5,6-dihydropyrrolo[3,4-c]pyrazol-1(4H)-yl)acetamido)-2-(3,5-difluorophenyl)ethyl)pyridin-3-yl)-2-fluorobenzamide], in “in vitro”, the cytotoxic concentration (CC50) at 5 days was > 53200 nM. Besides, the inhibition at 2 µM in the data set on HIV-IIIb was found to be 1%.
Consider `NC(=O)c1cc(-c2cccnc2[C@H](Cc2cc(F)cc(F)c2)NC(=O)Cn2nc3c(c2C(F)F)C2CC2C3=O)ccc1F` (stereo partly drawn) [Example 220B, 5-(2-((1S)-1-(2-(3-(difluoromethyl)-5-oxo-3b,4,4a,5-tetrahydro-2H-cyclopropa[3,4]cyclopenta[1,2-c]pyrazol-2-yl)acetamido)-2-(3,5-difluorophenyl)ethyl)pyridin-3-yl)-2-fluorobenzamide], for which the midpoint of cytotoxicity in “in vitro”, the CC50 at 5 days, lay at 39200 nM. Besides, in the data set on HIV-IIIb, the inhibition at 2 µM turned out to be 70%.
For `Cc1ccc2c(c1C)NC(=O)C2CC(=O)N[C@@H](Cc1cc(F)cc(F)c1)c1ncccc1-c1ccc(F)c(C(N)=O)c1` (stereo partly drawn) [Example 221, 5-(2-((1S)-2-(3,5-difluorophenyl)-1-(2-(6,7-dimethyl-2-oxoindolin-3-yl)acetamido)ethyl)pyridin-3-yl)-2-fluorobenzamide], in that order: 40500 nM and 1%.
Take `NC(=O)c1cc(-c2cccnc2[C@H](Cc2cccc(F)c2)NC(=O)Cn2nc(C(F)(F)F)cc2Br)ccc1F` [Example 222B, (S)-5-(2-(1-(2-(5-bromo-3-(trifluoromethyl)-1H-pyrazol-1-yl)acetamido)-2-(3-fluorophenyl)ethyl)pyridin-3-yl)-2-fluorobenzamide]: in “in vitro”, it took 25600 nM to reach half-maximal cytotoxicity (CC50 at 5 days). In the data set on HIV-IIIb, the inhibition at 2 µM turned out to be 21%.
In the case of `CC(C)Oc1ccc(-c2cccnc2[C@H](Cc2cc(F)cc(F)c2)NC(=O)Cn2nc(C(F)F)c3c2C(F)(F)C2CC32)cc1` (stereo partly drawn) [Example 224, 2-(3-(difluoromethyl)-5,5-difluoro-3b,4,4a,5-tetrahydro-1H-cyclopropa[3,4]cyclopenta[1,2-c]pyrazol-1-yl)-N—((S)-2-(3,5-difluorophenyl)-1-(3-(4-isopropoxyphenyl)pyridin-2-yl)ethyl)acetamide], half-maximal cytotoxicity in the data set “in vitro” (CC50 at 5 days) was put at 20400 nM. Besides, the inhibition at 2 µM with HIV-IIIb was 17%.
In the data set “in vitro”, `NC(=O)c1cccc(-c2cccnc2[C@H](Cc2cc(F)cc(F)c2)NC(=O)C2CC23C(=O)Nc2ccccc23)c1` (stereo partly drawn) [Example 225, N—((S)-1-(3-(3-carbamoylphenyl)pyridin-2-yl)-2-(3,5-difluorophenyl)ethyl)-2′-oxospiro[cyclopropane-1,3′-indoline]-2-carboxamide] registered a half-maximal cytotoxic concentration (CC50) at 5 days of 23000 nM. In addition, the inhibition at 2 µM with HIV-IIIb is 15%.
As for `NC(=O)c1cccc(-c2cccnc2[C@H](Cc2cc(F)cc(F)c2)NC(=O)Cn2ccc3cnc(N)nc32)c1` [Example 226C, (S)-3-(2-(1-(2-(2-amino-7H-pyrrolo[2,3-d]pyrimidin-7-yl)acetamido)-2-(3,5-difluorophenyl)ethyl)pyridin-3-yl)benzamide], the CC50 at 5 days in the data set “in vitro” was > 53000 nM. Moreover, the inhibition at 2 µM with HIV-IIIb was found to be 0%.
In the data set “in vitro”, `CC(C)(C)OC(=O)N1Cc2c(C(F)(F)F)nn(CC(=O)N[C@@H](Cc3cc(F)cc(F)c3)c3ncccc3-c3ccc(F)c(C(N)=O)c3)c2C1` [Example 227, (S)-tert-butyl 1-(2-((1-(3-(3-carbamoyl-4-fluorophenyl)pyridin-2-yl)-2-(3,5-difluorophenyl)ethyl)amino)-2-oxoethyl)-3-(trifluoromethyl)-4,6-dihydropyrrolo[3,4-c]pyrazole-5(1H)-carboxylate] returned a half-maximal cytotoxic concentration (CC50) at 5 days of 14300 nM. Further, in the data set with HIV-IIIb, the inhibition at 2 µM worked out at 1%.
`NC(=O)c1cc(-c2cccnc2[C@H](Cc2cccc(F)c2)NC(=O)Cn2nc(C(F)(F)F)c3c2CCSC3)ccc1F` [Example 228B, (S)-2-fluoro-5-(2-(2-(3-fluorophenyl)-1-(2-(3-(trifluoromethyl)-6,7-dihydrothiopyrano[4,3-c]pyrazol-1(4H)-yl)acetamido)ethyl)pyridin-3-yl)benzamide]: in the data set “in vitro”, the cytotoxic concentration (CC50) at 5 days was found to be 23400 nM. Also, the inhibition at 2 µM in the data set on HIV-IIIb amounted to 51%.
The compound `NC(=O)c1cc(-c2cccnc2[C@H](Cc2cccc(F)c2)NC(=O)Cn2nc(C(F)(F)F)c3c2CCCC3)ccc1F` [Example 229, (S)-2-fluoro-5-(2-(2-(3-fluorophenyl)-1-(2-(3-(trifluoromethyl)-4,5,6,7-tetrahydro-1H-indazol-1-yl)acetamido)ethyl)pyridin-3-yl)benzamide] registered a CC50 at 5 days in the data set “in vitro” of 18600 nM. In addition, the inhibition at 2 µM in the data set with HIV-IIIb was found to be 95%.
In the case of `O=C(Cn1nc(C(F)F)c2c1C(F)(F)C1CC21)N[C@@H](Cc1cc(F)cc(F)c1)c1ncccc1-c1ccc(OC(F)(F)F)cc1` (stereo partly drawn) [Example 230, 2-(3-(difluoromethyl)-5,5-difluoro-3b,4,4a,5-tetrahydro-1H-cyclopropa[3,4]cyclopenta[1,2-c]pyrazol-1-yl)-N—((S)-2-(3,5-difluorophenyl)-1-(3-(4-(trifluoromethoxy)phenyl)pyridin-2-yl)ethyl)acetamide], the midpoint of cytotoxicity in “in vitro”, the CC50 at 5 days, lay at 14000 nM. Besides, in the data set with HIV-IIIb, the inhibition at 2 µM is 66%.
In the data set “in vitro”, `O=C(Cn1nc(C(F)F)c2c1C(F)(F)C1CC21)N[C@@H](Cc1cc(F)cc(F)c1)c1ncccc1-c1ccc(OC(F)F)cc1` (stereo partly drawn) [Example 231, N—((S)-1-(3-(4-(difluoromethoxy)phenyl)pyridin-2-yl)-2-(3,5-difluorophenyl)ethyl)-2-(3-(difluoromethyl)-5,5-difluoro-3b,4,4a,5-tetrahydro-1H-cyclopropa[3,4]cyclopenta[1,2-c]pyrazol-1-yl)acetamide] yielded a CC50 at 5 days of 43200 nM. The inhibition at 2 µM in the data set on HIV-IIIb was found to be 79%.
As to `NC(=O)c1cc(-c2cccnc2[C@H](Cc2cc(F)cc(F)c2)NC(=O)Cn2nc(C(F)(F)F)c3c2CCSC3)ccc1F` [Example 232, (S)-5-(2-(2-(3,5-difluorophenyl)-1-(2-(3-(trifluoromethyl)-6,7-dihydrothiopyrano[4,3-c]pyrazol-1(4H)-yl)acetamido)ethyl)pyridin-3-yl)-2-fluorobenzamide], the CC50 at 5 days in “in vitro” was determined as 18700 nM. Moreover, the inhibition at 2 µM in the data set on HIV-IIIb turned out to be 61%.
For `NC(=O)c1cc(-c2cccnc2[C@H](Cc2cc(F)cc(F)c2)NC(=O)Cn2nc(C(F)F)c3c2C(=O)C2CC32)ccc1F` (stereo partly drawn) [Example 233B, 5-(2-((1S)-1-(2-(3-(difluoromethyl)-5-oxo-3b,4,4a,5-tetrahydro-1H-cyclopropa[3,4]cyclopenta[1,2-c]pyrazol-1-yl)acetamido)-2-(3,5-difluorophenyl)ethyl)pyridin-3-yl)-2-fluorobenzamide], in that order: 32200 nM and 5%.
In the same order, the values of `CC1Cc2c(C(F)(F)F)nn(CC(=O)N[C@@H](Cc3cc(F)cc(F)c3)c3ncccc3-c3ccc(F)c(C(N)=O)c3)c2C1` (stereo partly drawn) [Example 234, 5-(2-((1S)-2-(3,5-difluorophenyl)-1-(2-(5-methyl-3-(trifluoromethyl)-5,6-dihydrocyclopenta[c]pyrazol-1(4H)-yl)acetamido)ethyl)pyridin-3-yl)-2-fluorobenzamide] are 15900 nM and 73%.
`CN1Cc2c(C(F)(F)F)nn(CC(=O)N[C@@H](Cc3cc(F)cc(F)c3)c3ncccc3-c3ccc(F)c(C(N)=O)c3)c2C1` [Example 235, (S)-5-(2-(2-(3,5-difluorophenyl)-1-(2-(5-methyl-3-(trifluoromethyl)-5,6-dihydropyrrolo[3,4-c]pyrazol-1(4H)-yl)acetamido)ethyl)pyridin-3-yl)-2-fluorobenzamide]: in the data set “in vitro”, the CC50 at 5 days is > 53200 nM. Also, in the data set on HIV-IIIb, the inhibition at 2 µM came out at 12%.
The compound `CC(C)c1cc(C(F)(F)F)n(CC(=O)N[C@@H](Cc2cc(F)cc(F)c2)c2ncccc2-c2ccc(F)c(C(N)=O)c2)n1` [Example 236D, (S)-5-(2-(2-(3,5-difluorophenyl)-1-(2-(3-isopropyl-5-(trifluoromethyl)-1H-pyrazol-1-yl)acetamido)ethyl)pyridin-3-yl)-2-fluorobenzamide] yielded a 50% cytotoxic concentration (CC50) at 5 days in the data set “in vitro” of 25600 nM. In addition, in the data set with HIV-IIIb, the inhibition at 2 µM turned out to be 15%.
With `NC(=O)c1cc(-c2cccnc2[C@H](Cc2cc(F)cc(F)c2)NC(=O)Cn2nc(C(F)(F)F)c3c2CC(=O)C3)ccc1F` [Example 237, (S)-5-(2-(2-(3,5-difluorophenyl)-1-(2-(5-oxo-3-(trifluoromethyl)-5,6-dihydrocyclopenta[c]pyrazol-1(4H)-yl)acetamido)ethyl)pyridin-3-yl)-2-fluorobenzamide], in “in vitro”, the CC50 at 5 days was determined as 38200 nM. The inhibition at 2 µM in the data set with HIV-IIIb stood at 1%.
`CC(C)(C)c1cc(C(F)(F)F)n(CC(=O)N[C@@H](Cc2cc(F)cc(F)c2)c2ncccc2-c2ccc(F)c(C(N)=O)c2)n1` [Example 238E, (S)-5-(2-(1-(2-(3-(tert-butyl)-5-(trifluoromethyl)-1H-pyrazol-1-yl)acetamido)-2-(3,5-difluorophenyl)ethyl)pyridin-3-yl)-2-fluorobenzamide]: in “in vitro”, the midpoint of cytotoxicity, the CC50 at 5 days, lay at 17000 nM. The inhibition at 2 µM in the data set on HIV-IIIb was determined as 12%.
In turn, `NC(=O)c1cc(-c2cccnc2[C@H](Cc2cc(F)cc(F)c2)NC(=O)Cn2nc(C(F)(F)F)c3c2CC(F)(F)C3)ccc1F` [Example 239, (S)-5-(2-(1-(2-(5,5-difluoro-3-(trifluoromethyl)-5,6-dihydrocyclopenta[c]pyrazol-1(4H)-yl)acetamido)-2-(3,5-difluorophenyl)ethyl)pyridin-3-yl)-2-fluorobenzamide] registered a 50% cytotoxic concentration (CC50) at 5 days in the data set “in vitro” of 19400 nM. In the data set on HIV-IIIb, the inhibition at 2 µM was found to be 18%.
As to `NC(=O)c1cc(-c2cccnc2[C@H](Cc2cc(F)cc(F)c2)NC(=O)Cn2nc(C(F)F)c3c2CC(F)(F)C3)ccc1F` [Example 241D, (S)-5-(2-(1-(2-(3-(difluoromethyl)-5,5-difluoro-5,6-dihydrocyclopenta[c]pyrazol-1(4H)-yl)acetamido)-2-(3,5-difluorophenyl)ethyl)pyridin-3-yl)-2-fluorobenzamide], half-maximal cytotoxicity in the data set “in vitro” (CC50 at 5 days) was put at 25400 nM. In addition, the inhibition at 2 µM with HIV-IIIb turned out to be 78%.
